# Entries after “also recorded” stand apart in the source; their conditions may differ.
# B1: AZ21: Fab clone selected against Bcl-2 + ABT-199 complex (antibody)
# heavy: EISEVQLVESGGGLVQPGGSLRLSCAASGFNLSYSSMHWVRQAPGKGLEWVASISPYSSYTYYADSVKGRFTISADTSKNTAYLQMNSLRAEDTAVYYCARGYWSFYGMDYWGQGTLVTVSSASTKGPSVFPLAPSSKSTSGGTAALGCLVKDYFPEPVTVSWNSGALTSGVHTFPAVLQSSGLYSLSSVVTVPSSSLGTQTYICNVNHKPSNTKVDKKVEPKSCDKTHTGGSHHHHHH
# light: SDIQMTQSPSSLSASVGDRVTITCRASQSVSSAVAWYQQKPGKAPKLLIYSASSLYSGVPSRFSGSRSGTDFTLTISSLQPEDFATYYCQQYYAHYLFTFGQGTKVEIKRTVAAPSVFIFPPSDSQLKSGTASVVCLLNNFYPREAKVQWKVDNALQSGNSQESVTEQDSKDSTYSLSSTLTLSKADYEKHKVYACEVTHQGLSSPVTKSFNRGECGGSDYKDDDDK
# B2: AZ35: Fab clone selected against Bcl-2 + ABT-199 complex (antibody)
# heavy: EISEVQLVESGGGLVQPGGSLRLSCAASGFNLYYSSIHWVRQAPGKGLEWVAYISSYSGYTYYADSVKGRFTISADTSKNTAYLQMNSLRAEDTAVYYCARGGWYWASGSYYGAMDYWGQGTLVTVSSASTKGPSVFPLAPSSKSTSGGTAALGCLVKDYFPEPVTVSWNSGALTSGVHTFPAVLQSSGLYSLSSVVTVPSSSLGTQTYICNVNHKPSNTKVDKKVEPKSCDKTHTGGSHHHHHH
# light: SDIQMTQSPSSLSASVGDRVTITCRASQSVSSAVAWYQQKPGKAPKLLIYSASSLYSGVPSRFSGSRSGTDFTLTISSLQPEDFATYYCQQYGYSVLITFGQGTKVEIKRTVAAPSVFIFPPSDSQLKSGTASVVCLLNNFYPREAKVQWKVDNALQSGNSQESVTEQDSKDSTYSLSSTLTLSKADYEKHKVYACEVTHQGLSSPVTKSFNRGECGGSDYKDDDDK
# B3: AZ34: Fab clone selected against Bcl-2 + ABT-199 complex (antibody)
# heavy: EISEVQLVESGGGLVQPGGSLRLSCAASGFNIYYSSMHWVRQAPGKGLEWVASISSYSGSTSYADSVKGRFTISADTSKNTAYLQMNSLRAEDTAVYYCARGGWFWGSGGYSSAFDYWGQGTLVTVSSASTKGPSVFPLAPSSKSTSGGTAALGCLVKDYFPEPVTVSWNSGALTSGVHTFPAVLQSSGLYSLSSVVTVPSSSLGTQTYICNVNHKPSNTKVDKKVEPKSCDKTHTGGSHHHHHH
# light: SDIQMTQSPSSLSASVGDRVTITCRASQSVSSAVAWYQQKPGKAPKLLIYSASSLYSGVPSRFSGSRSGTDFTLTISSLQPEDFATYYCQQHHSLITFGQGTKVEIKRTVAAPSVFIFPPSDSQLKSGTASVVCLLNNFYPREAKVQWKVDNALQSGNSQESVTEQDSKDSTYSLSSTLTLSKADYEKHKVYACEVTHQGLSSPVTKSFNRGECGGSDYKDDDDK
# Key:
# [1] = test system: scAZ1-VPR and dCas9-BCL-xL in reporter HEK293T cell line containing the Gal4-UAS-Fluc operon; assay: CRISPRa-mediated luciferase assay (scAZ1 AbCID gene circuit); type: cell-based
# Procedure: For CRISPRa-mediated transcriptional activation, the reporter HEK293T cell line containing the Gal4-UAS-Fluc operon (Collaboration, O. R, Nat. Methods, 13:191-192 (2016)) was seeded at ˜0.5×10^6 cells/well in 6-well plates and cultured under 5% CO2 at 37° C. overnight. The cells were transfected with a plasmid encoding scAZ1-VPR and another plasmid encoding dCas9-BCL-xL and Gal4 sgRNA at a 1:1 ratio. The transfected cells were trypsinized and resuspended in fresh DMEM supplemented with 10% FBS 24 h after transfection. Cells were then aliquoted into a 96-well poly-D-lysine coated plate (Corning) and allowed to adhere for 24 h before 20 nM ABT-737 was added to induce CRISPRa activity. Cells were then further incubated for 48 h before evaluation of luciferase gene expression. To determine luciferase activity, cells were lysed with Bright-Glo Luciferase Assay substrate (Promega) and analyzed using an Infinite M200 PRO plate reader (Tecan). The luciferase activities were background-subtracted with a negative control (cells expressing full-length dCas9-VPR and PHOX2B negative-sgRNA), and normalized against a positive control (cells expressing full-length dCas9-VPR and Gal4 sgRNA). For investigation of cellular dose response, different concentrations of ABT-737 (0.014 nM, 0.041 nM, 0.12 nM, 0.37 nM, 1.1 nM, 3.3 nM, 10 nM, 30 nM, 90 nM, 270 nM) were added to the cells after cells were transfected and aliquoted to a 96-well plate.
# [2] = test system: AbCID CAR (BCL-xL) Jurkat NFAT reporter cells co-cultured with K562 target cells; assay: Quantification of CAR T-cell activation (NFAT-GFP, CD69, IL-2); type: cell-based; conditions: for NFAT-dependent GFP reporter expression / IL-2 secretion / CD69 expression: antibody 5 nM, 20 hours
# Procedure: Jurkat cells expressing CARs were mixed with antigen positive (CD19^+) or antigen negative (CD19^−) K562 target cells at a ratio of 1:2. […] After overnight incubation at 37° C., cells were pelleted by centrifugation. NFAT-dependent GFP reporter expression was quantified by flow cytometry using a FACSCanto II (BD Biosciences). CD69 expression was quantified by immunofluorescence flow cytometry using a FACSCanto II (BD Biosciences) using an APC anti-human CD69 Antibody (Biolegend 310910). IL-2 secretion was quantified by collection of supernatants and analysis by ELISA using the BD Human IL-2 ELISA set as per manufacturer's protocol. All flow cytometry data analysis was performed using FlowJo software and all plots were generated using Prism software (GraphPad).
# HEK293T cells = assay: Cellular toxicity of ABT-737, CellTiter-Glo; type: cell-based; conditions: 24 h, viability relative to DMSO, read-out: IC50 (cell death)
# Procedure: (§1) W T Jurkat, AbCID CAR Jurkat, Conventional CAR Jurkat, WT K562, CD19^+ K562, and HEK293T cells were plated in 96-well plates at ˜5000 cells per well. Each cell line was incubated with varying concentrations of ABT-737 (10 μM initial, 3-fold serial-dilutions, 8 times) or DMSO alone (0.1%). After 24 h, cell viability was measured using a CellTiter-Glo® Luminescent Cell Viability Assay (Promega) and the manufacturer's standard protocol. The percent viability relative to DMSO treatment was plotted and analyzed for each cell line using Prism software (GraphPad).
# Jurkat cells = assay: Cellular toxicity of ABT-737, CellTiter-Glo; type: cell-based; conditions: 24 h, viability relative to DMSO, read-out: IC50 (cell death)
# Procedure: as §1
# K562 cells = assay: Cellular toxicity of ABT-737, CellTiter-Glo; type: cell-based; conditions: K562, 24 h, viability relative to DMSO; read-out: IC50 (cell death)
# Procedure: as §1
# platelets = conditions: Zhang et al. 2007; cited from earlier work
# mice = conditions: mouse, in vivo; cited from earlier work
# BCL-xL/ABT-263 complex = molecular target: T1, BCL-xL/ABT-263 complex (Homo sapiens, UniProt Q07817); assay: Biolayer interferometry, Fab binding to BCL-xL in the presence of ABT-263; conditions: ABT-263 in place of ABT-737
# T1 construct: C-terminally truncated BCL-xL (residues 2-215) with an N-terminal AviTag; made in house; host or cells: E. coli BL21(DE3), pMCSG7 vector
# T1 sequence (Q07817 2-215, one chain of several): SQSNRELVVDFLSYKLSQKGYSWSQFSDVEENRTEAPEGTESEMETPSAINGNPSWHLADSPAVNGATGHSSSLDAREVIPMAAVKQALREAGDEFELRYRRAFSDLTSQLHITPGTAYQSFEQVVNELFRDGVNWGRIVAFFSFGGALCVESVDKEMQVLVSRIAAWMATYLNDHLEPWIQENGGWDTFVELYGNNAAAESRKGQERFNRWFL
# Procedure: Biolayer interferometery data were measured using an Octet RED384 instrument (ForteBio). Biotinylated BCL-xL was immobilized on a Streptavidin (SA) biosensor using a 200 nM solution. Serial dilutions of Fabs in kinetics buffer (PBS, pH 7.4, 0.05% Tween-20, 0.2% BSA, 10 μM biotin) with small molecule (1 μM), peptide (5 μM), or vehicle (0.05% DMSO) were used as analyte. Affinity (KD) and kinetic parameters (kon and koff) were calculated from a global fit (1:1) of the data using the Octet RED384 software.
# [3] = test system: T cells co-cultured with CD19+ K562 cells; assay: AbCID-regulated inducible bispecific T cell engager, T cell activation; type: cell-based; conditions: for T-cell activation, CD69 expression / T-cell activation, NFAT signaling (GFP expression): antibody conjugated to anti-CD19, Bcl-2 conjugated to anti-CD3, addition of ABT-199
# Description: A representative embodiment of an AbCID-regulated inducible bispecific T cell engager is shown in FIG. 19A, having a first AbCID component conjugated to an anti-CD3 antibody and a second AbCID component conjugated to an antibody that recognizes a tumor specific antigen. Administration of the small molecule dimerizer allows for generation of the CID complex, resulting in recruitment of T cells to cancer cells expressing the tumor specific antigen.
molecule,measurement,setting,value
CN(C)CC[C@H](CSc1ccccc1)Nc1ccc(S(=O)(=O)NC(=O)c2ccc(N3CCN(Cc4ccccc4-c4ccc(Cl)cc4)CC3)cc2)cc1[N+](=O)[O-] [ABT-737],concentration range used to induce CRISPRa activity,[1],< 270 nM
same,EC50,"[1]; 48-hour induction, AbCID-gated system, read-out: EC50 of induction of luciferase expression",8.9 ± 1 nM
same,luciferase expression,"[1]; ABT-737 20 nM, 48 hours, Gal4 sgRNA",robust expression of luciferase
same,luciferase expression with a negative sgRNA,[1]; AbCID-gated system with a negative sgRNA,no increase in luciferase expression
same,concentration range used to induce AbCID CAR activity,[2],< 100 nM
same,T-cell activation by ABT-737 on its own,[2]; ABT-737 alone,not able to induce T-cell activation on its own
same,NFAT-dependent GFP reporter expression,[2]; CD19+ K562 target cells,dose-dependent activation of the NFAT pathway
same,IL-2 secretion,"[2]; CD19+ K562 target cells, ELISA",dose-dependent secretion of IL-2
same,CD69 expression,"[2]; CD19+ K562 target cells, immunofluorescence flow cytometry",dose-dependent expression of CD69
same,CD69 expression,[2]; CD19− K562 target cells,no expression was observed
same,IL-2 secretion,[2]; CD19− K562 target cells,no secretion was observed
same,NFAT-dependent GFP reporter expression,[2]; CD19− K562 target cells,not observed; also recorded: no activation was observed
same,IC50,HEK293T cells,~10000 nM
same,IC50,Jurkat cells,~2000 nM
same,IC50,K562 cells,> 10000 nM
same,concentration observed to be toxic to platelets,platelets,low μM
same,tolerability in mice,mice,"generally well tolerated by mice, except for platelet toxicity"
CC1(C)CCC(c2ccc(Cl)cc2)=C(CN2CCN(c3ccc(C(=O)NS(=O)(=O)c4ccc(N[C@H](CCN5CCOCC5)CSc5ccccc5)c(S(=O)(=O)C(F)(F)F)c4)cc3)CC2)C1 [ABT-263],formation of a dimer,BCL-xL/ABT-263 complex,does not result in the formation of a dimer
B1,"T-cell activation, CD69 expression",[3],increased expression of CD69
same,"T-cell activation, NFAT signaling (GFP expression)",[3],activation of NFAT signaling
same,level of T-cell activation (NFAT activation) versus ABT-199 concentration,[3]; titration of ABT-199,tunable by titration of ABT-199 concentration
B2,"T-cell activation, CD69 expression",[3],increased expression of CD69
same,"T-cell activation, NFAT signaling (GFP expression)",[3],activation of NFAT signaling
B3,"T-cell activation, CD69 expression",[3],increased expression of CD69
same,"T-cell activation, NFAT signaling (GFP expression)",[3],activation of NFAT signaling
